In US10239870B2, “Dopamine D3 receptor antagonists” (priority 2014, dated 2019):
Where a name gives a salt, the structure may show the parent alone.

These molecules were tested against T1, hD2 recombinant receptor (human dopamine receptor type 2, long variant, CHO-Gα16-hD2L cells) (Homo sapiens (Human), UniProt P14416) (assay: cell-based). Conditions: D2 fpKi, functional pKi; antagonism of dopamine EC80 calcium response (FLIPR).
In the case of `Cn1c(SCCCN2CC[C@]3(C[C@@H]3c3ccc(C(F)(F)F)cc3)C2)nnc1N1CCOCC1` (single isomer, unassigned) [Example 118, hydrochloride], the Ki is reported as 41.7 nM.
`Cn1c(SCCCN2CC[C@]3(CC3c3ccc(C(F)(F)F)cc3F)C2)nnc1-c1cnccn1` (stereo partly drawn) [Example 221, (1S,3S/1R,3R)-1-[2-fluoro-4-(trifluoromethyl)phenyl]-5-(3-{[4-methyl-5-(pyrazin-2-yl)-4H-1,2,4-triazol-3-yl]sulfanyl}propyl)-5-azaspiro[2.4]heptane] was tested, and the Ki was 87.1 nM.
In the case of `Cn1c(SCCCN2CC[C@]3(C[C@H]3c3ccc(C(F)(F)F)cc3F)C2)nnc1C1CCOCC1` (single isomer, unassigned) [Example 75, (1R,3S or 1S,3R)-1-[2-fluoro-4-(trifluoromethyl)phenyl]-5-(3-{[4-methyl-5-(oxan-4-yl)-4H-1,2,4-triazol-3-yl]sulfanyl}propyl)-5-azaspiro[2.4]heptane hydrochloride], the Ki is reported as > 10000 nM.
`Cc1ncoc1-c1nnc(SCCCN2CCC[C@]3(C[C@@H]3c3ccc(C(F)(F)F)cc3)C2)n1C` [Example 313, (1S,3S/1R,3R)-5-(3-{[4-methyl-5-(4-methyl-1,3-oxazol-5-yl)-4H-1,2,4-triazol-3-yl]sulfanyl}propyl)-1-[4-(trifluoromethyl)phenyl]-5-azaspiro[2.5]octane] was tested, and the Ki was > 10000 nM.
Molecule `Cn1c(SCCCN2CC[C@]3(CC3c3ccc(C(F)(F)F)cc3F)C2)nnc1C1CCOCC1` (single isomer, unassigned) [Example 76] has a Ki of 708 nM.
In the case of `Cn1c(CCCCN2CC[C@]3(CC3c3ccc(C(F)(F)F)cc3)C2)nnc1C1CCOCC1` (stereo partly drawn) [Example 296, (1S,3S/1R,3R)-5-{4-[4-methyl-5-(oxan-4-yl)-4H-1,2,4-triazol-3-yl]butyl}-1-[4-(trifluoromethyl)phenyl]-5-azaspiro[2.4]heptane], the Ki is reported as > 10000 nM.
`Cc1ncoc1-c1nnc(CCCCN2CC[C@]3(CC3c3ccc(C(F)(F)F)cc3)C2)n1C` (stereo partly drawn) [Example 301, (1R,3S/1S,3R)-5-{4-[4-methyl-5-(4-methyl-1,3-oxazol-5-yl)-4H-1,2,4-triazol-3-yl]butyl}-1-[4-(trifluoromethyl)phenyl]-5-azaspiro[2.4]heptane hydrochloride] gave a Ki of 1450 nM.

The molecules below were run against T1, hD2 recombinant receptor (human dopamine receptor type 2, long variant, CHO-Gα16-hD2L cells) (assay: not given). Conditions: functional pKi; antagonism of dopamine EC80 calcium response (FLIPR).
`Cc1ncoc1-c1nnc(SCCCN2CCC[C@]3(C[C@H]3c3ccc(C(F)(F)F)cc3)C2)n1C` (single isomer, unassigned) [Example 312, (1S,3R or 1R,3S)-5-(3-{[4-methyl-5-(4-methyl-1,3-oxazol-5-yl)-4H-1,2,4-triazol-3-yl]sulfanyl}propyl)-1-[4-(trifluoromethyl)phenyl]-5-azaspiro[2.5]octane] was tested, and the “D2 fpKi” value was 8.26.
For `Cn1c(OCCCN2CC[C@@]3(C[C@@H]3c3ccc(C(F)(F)F)cc3)C2)nnc1C1CCOCC1` (single isomer, unassigned) [Example 305, (1R,3R or 1S,3S)-5-(3-{[4-methyl-5-(oxan-4-yl)-4H-1,2,4-triazol-3-yl]oxy}-propyl)-1-[4-(trifluoromethyl)phenyl]-5-azaspiro[2.4]heptane], the “D2 fpKi” value was <5.
With `Cc1ncoc1-c1nnc(SCCCN2CC[C@]3(CC[C@H]3c3ccccc3)C2)n1C` (single isomer, unassigned) [Example 318, (1R,4S or 1S,4R or 1S,4S or 1R,4R)-6-(3-{[4-methyl-5-(4-methyl-1,3-oxazol-5-yl)-4H-1,2,4-triazol-3-yl]sulfanyl}propyl)-1-phenyl-6-azaspiro[3.4]octane] the “D2 fpKi” value was <5.
In the case of `Cn1c(OCCCN2CC[C@]3(C[C@H]3c3ccc(C(F)(F)F)cc3)C2)nnc1C1CCOCC1` (single isomer, unassigned) [Example 304, (1S,3S or 1R,3R)-5-(3-{[4-methyl-5-(oxan-4-yl)-4H-1,2,4-triazol-3-yl]oxy}propyl)-1-[4-(trifluoromethyl)phenyl]-5-azaspiro[2.4]heptane], the “D2 fpKi” value is reported as <5.
In the case of `Cc1ncoc1-c1nnc(SCCCN2CCC[C@@]3(C[C@H]3c3ccc(C(F)(F)F)cc3)C2)n1C` (single isomer, unassigned) [Example 314, (1S,3S or 1R,3R)-5-(3-{[4-methyl-5-(4-methyl-1,3-oxazol-5-yl)-4H-1,2,4-triazol-3-yl]sulfanyl}propyl)-1-[4-(trifluoromethyl)phenyl]-5-azaspiro[2.5]octane], the “D2 fpKi” value is reported as <5.

The molecules below were run against T2, hD2 recombinant receptor (human dopamine receptor type 2, long variant, CHO-Gα16-hD2L membranes) (Homo sapiens (Human), UniProt P14416) (assay: biochemical). Conditions: not given.
`Cc1ncoc1-c1nnc(CCCCN2CC[C@]3(C[C@@H]3c3ccc(C(F)(F)F)cc3)C2)n1C` (single isomer, unassigned) [Example 302, hydrochloride] gave a Ki of 1150 nM.
With `Cn1c(SCCCN2CC[C@]3(C[C@@H]3c3ccc(C(F)(F)F)cc3F)C2)nnc1-c1ccc(C(N)=O)nc1` (single isomer, unassigned) [Example 185] the Ki was 1230 nM.
For `Cn1c(SCCCN2CC[C@]3(C[C@@H]3c3ccc(C(F)(F)F)cc3)C2)nnc1-c1ccc(-n2cnnc2)cc1` (single isomer, unassigned) [Example 276], the Ki was 166 nM.
In the case of `Cn1c(SCCCN2CC[C@]3(C[C@@H]3c3ccc(C(F)(F)F)cc3)C2)nnc1-c1ccc2[nH]cnc2n1` (single isomer, unassigned) [Example 272], the Ki is reported as 95.5 nM.
For `Cc1nccnc1-c1nnc(SCCCN2CC[C@]3(C[C@@H]3c3ccc(C(F)(F)F)cc3)C2)n1C` (single isomer, unassigned) [Example 227, hydrochloride], the Ki was 575 nM.
`Cc1cccnc1-c1nnc(SCCCN2CC[C@]3(C[C@@H]3c3ccc(C(F)(F)F)cc3)C2)n1C` (single isomer, unassigned) [Example 170, dihydrochloride] was tested, and the Ki was 1410 nM.
For `Cn1c(SCCCN2CC[C@]3(C[C@@H]3c3ccc(C(F)(F)F)cc3)C2)nnc1N1CCOCC1` (single isomer, unassigned) [Example 118, hydrochloride], the Ki was 251 nM.
In the case of `Cn1c(SCCCN2CC[C@]3(C[C@@H]3c3ccc(C(F)(F)F)cc3)C2)nnc1-c1ccnc(C#N)c1` (single isomer, unassigned) [Example 178], the Ki is reported as 794 nM.
`Cn1c(SCCCN2CC[C@]3(C[C@@H]3c3ccc(C(F)(F)F)cc3)C2)nnc1-c1ccc(-c2nnn[nH]2)cc1` (single isomer, unassigned) [Example 273] was tested, and the Ki was 3160 nM.
For `Cn1c(SCCCN2CC[C@]3(C[C@@H]3c3ccc(C(F)(F)F)cc3)C2)nnc1-c1cccc(C(N)=O)n1` (single isomer, unassigned) [Example 193], the Ki was 437 nM.
With `Cn1c(SCCCN2CC[C@]3(C[C@@H]3c3ccc(C(F)(F)F)cc3)C2)nnc1-c1cnc(-c2cccnc2)o1` (single isomer, unassigned) [Example 263] the Ki was 589 nM.
Molecule `Cn1c(SCCCN2CC[C@]3(C[C@@H]3c3ccc(C(F)(F)F)cc3F)C2)nnc1-c1ccc(C(N)=O)cn1` (single isomer, unassigned) [Example 190] has a Ki of 275 nM.
Work on `Cn1c(SCCCN2CC[C@]3(C[C@@H]3c3ccc(C(F)(F)F)cc3)C2)nnc1-c1ccc(CC#N)cc1` (single isomer, unassigned) [Example 286] yielded a Ki of 468 nM.
Work on `Cn1c(SCCCN2CC[C@@]3(C[C@H]3c3ccc(C(F)(F)F)cc3F)C2)nnc1-c1ccc(C(N)=O)nc1` (single isomer, unassigned) [Example 186] yielded a Ki of 4900 nM.
Molecule `Cn1c(SCCCN2CC[C@]3(C[C@@H]3c3ccc(C(F)(F)F)cc3)C2)nnc1-c1ccc(Oc2ccccc2)nc1` (single isomer, unassigned) [Example 265] has a Ki of 589 nM.
`Cn1c(SCCCN2CC[C@]3(C[C@@H]3c3ccc(C(F)(F)F)cc3)C2)nnc1-c1ccnc(C(N)=O)c1` (single isomer, unassigned) [Example 191] gave a Ki of 513 nM.
`Cn1c(SCCCN2CC[C@]3(C[C@@H]3c3ccc(C(F)(F)F)cc3)C2)nnc1-c1cncc(C(N)=O)c1` (single isomer, unassigned) [Example 192] gave a Ki of 437 nM.
For `Cn1c(SCCCN2CC[C@]3(C[C@@H]3c3ccc(C(F)(F)F)cc3)C2)nnc1-c1ccc(C(N)=O)cn1` (single isomer, unassigned) [Example 189, dihydrochloride], the Ki was 437 nM.
Work on `Cc1nc(-c2ccc(-c3nnc(SCCCN4CC[C@]5(C[C@@H]5c5ccc(C(F)(F)F)cc5)C4)n3C)cc2)no1` (single isomer, unassigned) [Example 275] yielded a Ki of 479 nM.
`Cn1c(SCCCN2CC[C@]3(C[C@@H]3c3ccc(C(F)(F)F)cc3)C2)nnc1-c1ccn2cnnc2c1` (single isomer, unassigned) [Example 269] gave a Ki of 1000 nM.

These molecules were tested against T2, hD2 recombinant receptor (human dopamine receptor type 2, long variant, CHO-Gα16-hD2L membranes) (assay: not given). Conditions: displacement of 0.08 nM [3H]-Spiperone.
In the case of `Cn1c(SCCCN2CC[C@]3(CC3c3ccc(C(F)(F)F)cc3F)C2)nnc1-c1cnccn1` (stereo partly drawn) [Example 221, (1S,3S/1R,3R)-1-[2-fluoro-4-(trifluoromethyl)phenyl]-5-(3-{[4-methyl-5-(pyrazin-2-yl)-4H-1,2,4-triazol-3-yl]sulfanyl}propyl)-5-azaspiro[2.4]heptane], the “D2 pKi” value is reported as 6.37.
